From publication PMC5431176, “Identification of a High-Affinity Pyruvate Receptor in Escherichia coli” (Scientific Reports, 2017)

Biological target: T1, BtsS (YehU) (Escherichia coli, UniProt P0AD14)
T1 construct: full-length BtsS-6His in membrane vesicles
Experiment: DRaCALA with […]-pyruvate on BtsS membrane vesicles, competition with cold pyruvate
Format: binding

T1 sequence (P0AD14 whole entry): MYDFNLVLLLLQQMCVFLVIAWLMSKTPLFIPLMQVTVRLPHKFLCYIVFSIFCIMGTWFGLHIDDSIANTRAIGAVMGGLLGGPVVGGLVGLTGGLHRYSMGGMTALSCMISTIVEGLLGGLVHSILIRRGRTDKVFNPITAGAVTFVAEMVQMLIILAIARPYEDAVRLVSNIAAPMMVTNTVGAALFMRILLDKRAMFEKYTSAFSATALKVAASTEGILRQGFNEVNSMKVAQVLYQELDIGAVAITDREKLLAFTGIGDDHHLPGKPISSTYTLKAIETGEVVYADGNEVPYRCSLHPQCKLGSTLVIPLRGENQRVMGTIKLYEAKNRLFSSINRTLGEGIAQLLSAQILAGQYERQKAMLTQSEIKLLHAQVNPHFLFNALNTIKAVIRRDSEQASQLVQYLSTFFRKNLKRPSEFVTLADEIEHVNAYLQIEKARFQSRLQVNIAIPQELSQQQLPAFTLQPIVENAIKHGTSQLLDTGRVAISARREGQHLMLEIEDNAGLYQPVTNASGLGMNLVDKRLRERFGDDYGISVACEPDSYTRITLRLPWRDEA

SMILES: CC(=O)C(=O)O [pyruvate]
- Kd: 58.6 ± 8.8 µM
